Our source for the IC50 and microsomal CLint values is patent US11691989B2, “Macrocyclic indoles as Mcl-1 inhibitors” (ASCENTAGE PHARMA (SUZHOU) CO., LTD., priority 2018, dated 2023).

Data set [1] concerns the target Mcl-1 protein (residues 171-323) (Homo sapiens (Human), UniProt Q07820). Description: Inhibition of Mcl-1 by fluorescence polarization (FP) competitive binding assay with FAM-Bid tracer. Particulars: 2 nM FAM-Bid, 20 nM Mcl-1, 30 min, read-out: Mc1-1 (FP). As to the method: Inhibition of Mcl-1 by fluorescence polarization (FP) assay.
The method used a fluorescein labelled peptide (FAM-Bid) which binds to the Mcl-1 protein leading to an increased anisotropy measured in milli-polarization (mP) values using a plate reader.
A 10-points serial dilution of each compound was prepared in DMSO and 5 μL solution was transferred into flat bottomed, 96-well back plate (final DMSO concentration 5%). 120 μL of Buffer (PBS, 0.01% BGG (Sigma Cat. #SRE0011), 0.01% Triton X-100), containing the Fluorescein labelled peptide (Final concentration 2 nM) and Mcl-1 protein (final concentration 20 nM) was then added. […] 10-points dose response curves were plotted with GraphPad software using Sigmoidal Dose-Response Model and the IC50 values were determined by nonlinear regression fitting of the competition curves.

Data set [2] can be described thus: Microsome clearance assay, mouse. Conditions: male, CD-1, mouse, pooled liver microsomes, pH 7.4, mouse liver microsomes, 0.5 mg/ml protein, 1 mM NADPH, 60 minutes, read-out: Mouse Liver Microsome Clint (μL/min/mg protein). Type of data set: in vitro ADME. The protocol: (§1) Representative Compounds of the Disclosure were tested in a microsome clearance assay. Pooled liver microsomes (20 mg/ml) from human, male Wister rat, and male CD-1 mouse were obtained from BD Bioscience (Franklin Lakes, N.J. USA). Incubation reaction mixtures contained a final concentration of 0.1M sodium phosphate buffer (pH 7.4), 0.5 mg/ml microsomal protein, 5 μM of test sample and 1 mM NADPH in a total volume of 400 μl. The incubations were done for 60 minutes and 300 μl of the mixtures was transferred to 150 μl of ice cold methanol to terminate reactions. After vortexes for 3 minutes and centrifuged at 4000 rpm at 4° C. for 10 minutes, the clear supernatant was used directly for analysis. The samples were analyzed by Applied Biosystems API 3200 Q TRAP LC/MS/MS system using electrospray ionization mode.

The next data set has as its system OPM-2 cells. Briefly: Cell viability assay (OPM-2 cells), CCK-8. Particulars: 5% FBS. Type of data set: cell-based. The protocol: Cell Viability Assay (OPM-2 cells)
OPM-2 cells were obtained from Deutsche Sammlung von Mikroorganismen and Zellkulturen GmbH (DSMZ). Cells were maintained in the recommended culture medium with 10% FBS at 37° C. and an atmosphere of 5% CO2.
The effect of representative Compounds of the Disclosure on cell viability was determined using Cell Counting Kit-8 (CCK-8) assay (Shanghai Life iLab Bio Technology) according to the manufacturer's instructions. Each tested compound was serially diluted in culture medium, 100 μL of the compound dilution was added into 96-well plates. 100 μL of an OPM-2 cell suspension (20000 cells/well) in culture medium were seeded into the corresponding well of the plate and the cells were incubated at 37° C. in an atmosphere of 5% CO2 for 24 hours. In the next day, 20 μL of CCK-8 solution was added to each well of the plate and incubated for 4 hours.
The plates were read at 450 nm on the microplate spectrophotometer (SpectraMax plus 384, Molecular devices). The readings were normalized to the vehicle cells, and the IC50 was calculated by nonlinear regression analysis using GraphPad Prism 6 software.

Data set [3] is described as follows: Microsome clearance assay, human. Type of data set: in vitro ADME. Conditions: human, pooled liver microsomes, pH 7.4, human liver microsomes, 0.5 mg/ml protein, 1 mM NADPH, 60 minutes, read-out: Human Liver Microsome Clint (μL/min/mg protein). The protocol: as §1
Data set [4] is described as follows: Microsome clearance assay, rat. Particulars: male, Wister, rat, pooled liver microsomes, pH 7.4, rat liver microsomes, 0.5 mg/ml protein, 1 mM NADPH, 60 minutes, read-out: Rat Liver Microsome Clint (μL/min/mg protein). Type of data set: in vitro ADME. The protocol: as §1
The test system of the next data set is NCI-H929 cells. Description: Cell viability assay (NCI-H929 cells), CCK-8. Type of data set: cell-based. Particulars: 5% FBS. As to the method:
Cell Viability Assay (NCI-H929 cells)
NCI-H929 cells were obtained from American Type Culture Collection (ATCC). Cells were maintained in the recommended culture medium (RPMI 1640) with 10% FBS and 0.05 mM BME at 37° C. and an atmosphere of 5% CO2.
The effect of Compounds on cell viability was determined using Cell Counting Kit-8 (CCK-8) assay according to the manufacturer's instructions. 95 μL of NCI-H929 cell suspension (20000 cells/well) in culture medium were seeded into 96-well plates and cultured 4 hrs. Each tested compound was serially diluted in DMSO, then 5 μL of the compound or DMSO was diluted in 95 μL medium once more. At last, 5 μL of the compound dilution was added to the corresponding well of the cell plate. After the addition of the tested compound, the cells were incubated at 37° C. in an atmosphere of 5% CO2 for 24 hrs. At the end, 10 μL of CCK-8 solution was added to each well of the plate and incubated for 1-4 hours. The plates were read at 450 nm on the microplate reader (BioTek Synergy 1MF). The readings were normalized to the vehicle cells, and the IC50 was calculated by nonlinear regression analysis using GraphPad Prism 6 software.

Mcl-1 protein (residues 171-323), sequence (Q07820 171-323): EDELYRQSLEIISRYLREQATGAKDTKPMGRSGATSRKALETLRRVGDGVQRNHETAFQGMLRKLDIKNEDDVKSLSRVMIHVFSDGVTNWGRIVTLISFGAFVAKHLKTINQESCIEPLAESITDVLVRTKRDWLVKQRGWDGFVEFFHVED

With `Cc1c(C(=O)O)n2c3ccc(Cl)c(c13)-c1c(nn(C)c1C)CN(C(C)C)Cc1cc(n(C)n1)CSc1cc(c3ccc(F)cc3c1)OCCC2` [Cpd. No. 53, (Z)-1^5-chloro-9^6-fluoro-4-isopropyl-1^3,2^1,2^5,6^1-tetramethyl-1^1H,2^1H,6^1H-10-oxa-8-thia-4-aza-1(4,1)-indola-2(4,3),6(3,5)-dipyrazola-9(3,1)-naphthalenacyclotridecaphane-1^2-carboxylic acid], the IC50 in data set [1] worked out at 34 nM; in the data set with OPM-2 cells (Homo sapiens, OPM-2, 24 h), 1710 nM; in the data set with NCI-H929 cells (Homo sapiens, NCI-H929, 24 h) it was 222 nM. The microsomal CLint at 5 μM in data set [2] amounted to 59.2 µL/min/mg; in data set [3] it was 18.6 µL/min/mg; in data set [4], 30 µL/min/mg.
As to `CCc1c(C(=O)O)n2c3ccc(Cl)c(c13)-c1c(nn(C)c1C)CSCc1cc(n(C)n1)CSc1cc(c3ccccc3c1)OCCC2` [Cpd. No. 8, (Z)-1^5-chloro-1^3-ethyl-2^1,2^5,6^1-trimethyl-1^1H,2^1H,6^111-10-oxa-4,8-dithia-1(4,1)-indola-2(4,3),6(3,5)-dipyrazola-9(3,1)-naphthalenacyclotridecaphane-1^2-carboxylic acid], the IC50 in data set [1] is 21 nM; in the data set on OPM-2 cells (Homo sapiens, OPM-2, 24 h), 268 nM; in the data set on NCI-H929 cells (Homo sapiens, NCI-H929, 24 h), 70 nM. The microsomal CLint at 5 μM turned out to be 325 µL/min/mg in data set [2], 86.8 µL/min/mg in data set [3] and 299 µL/min/mg in data set [4].
For `Cc1c(C(=O)O)n2c3ccc(Cl)c(c13)-c1c(nn(C)c1C)CSCc1cc(n(C(C)C)n1)CSc1cc(c3ccc(F)cc3c1)OCCC2` [Cpd. No. 17, (Z)-1^5-chloro-9^6-fluoro-6^1-isopropyl-1^3,2^1,2^5-trimethyl-1^1H,2^1H,6^1H-10-oxa-4,8-dithia-1(4,1)-indola-2(4,3),6(3,5)-dipyrazola-9(3,1)-naphthalenacyclotridecaphane-1^2-carboxylic acid], the microsomal CLint at 5 μM in data set [2] amounted to 29.2 µL/min/mg; in data set [3], 19.4 µL/min/mg; in data set [4] it was 46.6 µL/min/mg. Besides, the IC50 was 94 nM in the data set with OPM-2 cells (Homo sapiens, OPM-2, 24 h) and 77 nM in the data set on NCI-H929 cells (Homo sapiens, NCI-H929, 24 h).
As for `Cc1c(C(=O)O)n2c3ccc(Cl)c(c13)-c1c(nn(C)c1C)CN(S(=O)(=O)c1cccnc1)Cc1cc(n(C)n1)CSc1cc(c3ccc(F)cc3c1)OCCC2` [Cpd. No. 41, (Z)-1^5-chloro-9^6-fluoro-1^3,2^1,2^5,6^1-tetramethyl-4-(pyridin-3-ylsulfonyl)-1^1H,2^1H,6^1H-10-oxa-8-thia-4-aza-1 (4,1)-indola-2(4,3),6(3,5)-dipyrazola-9(3,1)-naphthalenacyclotridecaphane-1^2-carboxylic acid], the IC50 in data set [1] came to 17 nM; with OPM-2 cells (Homo sapiens, OPM-2, 24 h), 275 nM; in the data set on NCI-H929 cells (Homo sapiens, NCI-H929, 24 h), 198 nM.
The matching figures for `Cc1c(C(=O)O)n2c3ccc(Cl)c(c13)-c1c(nn(C)c1C)CN(S(=O)(=O)N(C)C)Cc1cc(n(C)n1)CSc1cc(c3ccc(F)cc3c1)OCCC2` [Cpd. No. 40, (Z)-1^5-chloro-9^6-fluoro-1^3,2^1,2^5,6^1-tetramethyl-4-(N, N-dimethylsulfamoyl)-1^1H,2^1H,6^1H-10-oxa-8-thia-4-aza-1 (4,1)-indola-2(4,3),6(3,5)-dipyrazola-9(3,1)-naphthalenacyclotridecaphane-1^2-carboxylic acid]: 13 nM, 190 nM and 159 nM.
The matching figures for `Cc1c(C(=O)O)n2c3ccc(Cl)c(c13)-c1c(nn(C)c1C)CN(S(=O)(=O)c1cnn(C)c1)Cc1cc(n(C)n1)CSc1cc(c3ccc(F)cc3c1)OCCC2` [Cpd. No. 36, (Z)-1^5-chloro-9^6-fluoro-1^3,2^1,2^5,6^1-tetramethyl-4#1-methyl-1H-pyrazol-4-yl)sulfonyl)-1^1H,2^1H,6^1H-10-oxa-8-thia-4-aza-1(4,1)-indola-2(4,3),6(3,5)-dipyrazola-9(3,1)-naphthalenacyclotridecaphane-1^2-carboxylic acid]: 27 nM, 2020 nM and 696 nM.
The matching figures for `Cc1c(C(=O)O)n2c3ccc(Cl)c(c13)-c1c(nn(C)c1C)CN(S(=O)(=O)c1ccn(C)n1)Cc1cc(n(C)n1)CSc1cc(c3ccc(F)cc3c1)OCCC2` [Cpd. No. 37, (Z)-1^5-chloro-9^6-fluoro-1^3,2^1,2^5,6^1-tetramethyl-4#1-methyl-1H-pyrazol-3-yl))sulfonyl)-1^1H,2^1H,6^1H-10-oxa-8-thia-4-aza-1(4,1)-indola-2(4,3),6(3,5)-dipyrazola-9(3,1)-naphthalenacyclotridecaphane-1^2-carboxylic acid]: 29 nM, 3160 nM and 1500 nM.
Regarding `Cc1c(C(=O)O)n2c3ccc(Cl)c(c13)-c1c(nn(C)c1C)CN(CC(=O)N(C)C)Cc1cc(n(C)n1)CSc1cc(c3ccc(F)cc3c1)OCCC2` [Cpd. No. 54, (Z)-1^5-chloro-4-(2-(dimethylamino)-2-oxoethyl)-9^6-fluoro-1^3,2^1,2^5, 6^1--tetramethyl-1^1H,2^1H,6^1H-10-oxa-8-thia-4-aza-1(4,1)-indola-2(4,3),6(3,5)-dipyrazola-9(3,1)-naphthalenacyclotridecaphane-1^2-carboxylic acid], the IC50 in data set [1] was determined as 27 nM; with OPM-2 cells (Homo sapiens, OPM-2, 24 h), 3480 nM; in the data set on NCI-H929 cells (Homo sapiens, NCI-H929, 24 h), 673 nM.
In the same order, the values of `Cc1nn(C)c2c1-c1c(Cl)ccc3c1c(C)c(C(=O)O)n3CCCOc1cc(cc3ccccc13)SCc1cc(nn1C)CN(S(C)(=O)=O)C2` [Cpd. No. 48, (Z)-1^5-chloro-1^3,2^1,2^3,6^1-tetramethyl-4-(methylsulfonyl)-1^1H,2^1H,6^1H-10-oxa-8-thia-4-aza-1(4,1)-indola-2(4,5),6(3,5)-dipyrazola-9(3,1)-naphthalenacyclotridecaphane-1^2-carboxylic acid] are 12 nM, 587 nM and 243 nM.
Turning to “(Z)-1^5-chloro-9^6-fluoro-1^3,2^1,2^3,6^1-tetramehtyl-4-(methylsulfonyl)-1^1H,2^1H,6^1H-10-oxa-8-thia-4-aza-1(4,1)-indola-2(4,5),6(3,5)-dipyrazola-9(3,1)- naphthalenacyclotridecaphane-1^2-carboxylic acid [Cpd. No. 49]”, the IC50 in data set [1] was determined as 5 nM; with OPM-2 cells (24 hours), 308 nM; in the data set with NCI-H929 cells (24 hrs), 204 nM.
